According to the NIST ThermoML archive (doi:10.1016/j.jct.2014.08.023):

Settings: Liquid, Vibrating tube method

CC(C)OC(C)C [diisopropyl ether]
mass density [kg/m3]
Settings | 293.15 K | 298.15 K | 313.15 K | 333.15 K | 353.19 K | 373.24 K | 393.29 K
100 kPa | 723.5 | 718.3 | 702.4 | 680.4 | – | – | –
1000 kPa | 724.3 | 719.5 | 703.7 | 682 | 659.5 | 635.5 | 609.5
5000 kPa | 729.1 | 724.5 | 709.3 | 688.8 | 667.5 | 645.5 | 622.1
10000 kPa | 734.5 | 730.2 | 715.7 | 696.3 | 676.4 | 656.1 | 634.9
15000 kPa | 739.6 | 735.6 | 721.6 | 703.1 | 684.4 | 665.3 | 645.7
20000 kPa | 744.5 | 740.5 | 727.1 | 709.3 | 691.5 | 673.4 | 655.1
25000 kPa | 749 | 745.2 | 732 | 715 | 698 | 680.8 | 663.4
30000 kPa | 753.3 | 749.6 | 737.1 | 720.4 | 704 | 687.6 | 671
35000 kPa | 757.4 | 753.7 | 741.5 | 725.5 | 709.6 | 693.8 | 677.9
40000 kPa | 761.3 | 757.7 | 745.8 | 730.2 | 714.8 | 699.6 | 684.3
45000 kPa | 765 | 761.6 | 749.9 | 734.7 | 719.7 | 705 | 690.2
50000 kPa | 768.6 | 765.2 | 753.8 | 739 | 724.5 | 710.1 | 695.7
55000 kPa | 772.1 | 768.7 | 757.6 | 743.1 | 728.9 | 714.9 | 701
60000 kPa | 775.4 | 772.1 | 761.3 | 747 | 733.1 | 719.5 | 705.9
65000 kPa | 778.6 | 775.4 | 764.8 | 750.8 | 737.2 | 723.9 | 710.6
70000 kPa | 781.7 | 778.5 | 768.1 | 754.3 | 741.1 | 728.1 | 715.1
80000 kPa | 787.6 | 784.5 | 774.3 | 761.2 | 748.4 | 735.9 | 723.5
90000 kPa | 793.2 | 790.3 | 780.4 | 767.7 | 755.3 | 743.2 | 731.3
100000 kPa | 798.5 | 795.6 | 786 | 773.6 | 761.6 | 750 | 738.3
110000 kPa | 803.6 | 800.8 | 791.4 | 779.3 | 767.7 | 756.3 | 745.2
120000 kPa | 808.4 | 805.6 | 796.4 | 784.6 | 773.4 | 762.3 | 751.3
130000 kPa | 812.9 | 810.3 | 801.3 | 789.8 | 778.8 | 768 | 757.4
140000 kPa | 817.3 | 814.6 | 806 | 794.7 | 784 | 773.3 | 763
